Source: PMC7799360, “Reprogramming immunosuppressive myeloid cells facilitates immunotherapy for colorectal cancer” (EMBO Molecular Medicine, 2020)
Where two headings read alike, the source gives them in different places.

Key:
[1] = molecular target: T1, AT1 (Homo sapiens, UniProt P30556); experiment: GPCR calcium flux assay; type: cell-based
T1 construct: Pharmaron (Beijing, China), contract laboratory

[2] = tested on: CT26 tumors; experiment: CT26 tumors in BALB/c nude mice; type: in vivo, mouse; settings: 75 mg/kg
Description: Syngeneic mouse tumor‐bearing models were established as described previously (Tan et al., 2018). Tumor cells (5 × 10^5 ‐ 2 × 10^6) were suspended in 100 μl PBS and implanted subcutaneously into the flank of mice. Mice were randomized into different treatment groups when tumor volumes reached 100‐200 mm^3. V = L×W^2 × 0.52, where L is the longest diameter, and W is the shortest diameter. Tumor size and body weight were recorded every second or third day. Mouse survival was analyzed using the Kaplan–Meier method.
(§1) Single agent or combination treatment was designed as follows: TP‐16 (37.5, 75, 150 mg/kg) or celecoxib (100 mg/kg) was formulated in 0.5% carboxymethylcellulose sodium (CMC‐Na, Sangon Biotech, Shanghai, China) and administered via oral gavage daily. In vivo anti‐PD1 antibody (clone RMP1‐14, BioXCell, West Lebanon, NH, USA) and rat IgG2a isotype control (clone 2A3, BioXCell) were diluted in sterile PBS and administered intraperitoneally at a dose of 50 μg twice weekly.

[3] = molecular target: T2, HTR2B (Homo sapiens, UniProt P41595); experiment: GPCR calcium flux assay; type: cell-based
T2 construct: Pharmaron (Beijing, China), contract laboratory
T2 sequence (P41595 whole entry, species assumed): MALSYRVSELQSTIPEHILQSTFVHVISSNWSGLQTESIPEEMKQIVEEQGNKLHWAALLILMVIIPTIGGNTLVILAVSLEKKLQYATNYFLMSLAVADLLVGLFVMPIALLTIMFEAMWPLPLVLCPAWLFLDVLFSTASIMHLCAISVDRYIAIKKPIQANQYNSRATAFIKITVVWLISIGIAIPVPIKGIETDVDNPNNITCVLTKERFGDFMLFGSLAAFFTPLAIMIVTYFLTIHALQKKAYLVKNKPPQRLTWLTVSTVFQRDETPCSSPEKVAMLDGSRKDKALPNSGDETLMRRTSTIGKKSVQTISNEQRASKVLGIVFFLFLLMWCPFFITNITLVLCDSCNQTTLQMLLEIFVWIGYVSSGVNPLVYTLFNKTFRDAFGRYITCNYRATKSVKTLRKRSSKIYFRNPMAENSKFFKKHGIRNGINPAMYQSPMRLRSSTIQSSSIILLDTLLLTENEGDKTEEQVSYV

[4] = molecular target: T3, ADRA2A (Homo sapiens, UniProt P08913); experiment: GPCR calcium flux assay; type: cell-based
T3 construct: Pharmaron (Beijing, China) performed the assay
T3 sequence (P08913 whole entry, species assumed): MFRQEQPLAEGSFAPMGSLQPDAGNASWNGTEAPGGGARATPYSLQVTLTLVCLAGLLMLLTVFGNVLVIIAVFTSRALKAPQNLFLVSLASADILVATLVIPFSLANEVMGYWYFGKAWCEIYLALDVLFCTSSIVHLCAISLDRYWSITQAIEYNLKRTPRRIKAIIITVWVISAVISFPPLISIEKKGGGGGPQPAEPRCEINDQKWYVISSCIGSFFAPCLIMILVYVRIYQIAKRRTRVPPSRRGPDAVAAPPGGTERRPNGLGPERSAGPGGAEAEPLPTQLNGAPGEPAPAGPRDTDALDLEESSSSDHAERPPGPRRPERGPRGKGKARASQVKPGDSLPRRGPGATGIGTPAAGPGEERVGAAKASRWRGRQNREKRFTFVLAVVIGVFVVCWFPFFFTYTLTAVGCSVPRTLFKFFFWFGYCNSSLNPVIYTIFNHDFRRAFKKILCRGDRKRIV

[5] = In vitro metabolic stability using liver microsome; type: in vitro ADME; settings: mouse liver microsome
[6] = molecular target: T4, OPRK1 (Homo sapiens, UniProt P41145); experiment: GPCR calcium flux assay; type: cell-based
T4 construct: Pharmaron (Beijing, China), contract laboratory
T4 sequence (P41145 whole entry, species assumed): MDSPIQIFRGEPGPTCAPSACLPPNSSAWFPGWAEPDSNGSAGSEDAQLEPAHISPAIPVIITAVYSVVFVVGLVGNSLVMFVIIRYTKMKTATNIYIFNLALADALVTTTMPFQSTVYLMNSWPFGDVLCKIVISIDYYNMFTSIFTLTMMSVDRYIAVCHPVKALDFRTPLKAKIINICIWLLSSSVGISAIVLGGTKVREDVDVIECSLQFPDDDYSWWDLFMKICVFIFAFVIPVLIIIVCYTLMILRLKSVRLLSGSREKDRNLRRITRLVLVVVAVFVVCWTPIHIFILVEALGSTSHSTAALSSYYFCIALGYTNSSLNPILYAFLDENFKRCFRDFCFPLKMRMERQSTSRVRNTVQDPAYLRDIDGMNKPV

[7] = tested on: CT26; experiment: Cell viability (MTS); type: cell-based, mouse; settings: CT26, 100 µM
Source text: (§2) The murine colon cancer (CT26), murine breast cancer (4T1), and human colon cancer (HCT116, HCT8, HT29, and DLD1) cell lines were obtained from American Type Culture Collection (ATCC). The murine cell lines of melanoma (B16F10), pancreatic cancer (Pan02), and colon cancer (MC38), Chinese hamster ovary (CHO) cell line, and human embryonic kidney cell lines (HEK293 and HEK293T) were purchased from the National Infrastructure of Cell Line Resource (Shanghai, China). Primary human endothelial cells (HUVECs) were kindly provided by Dr. Xinli Wang (Baylor College of Medicine, Houston, TX, USA) and cultured in endothelial cell medium (ScienCell, San Diego, CA, USA) according to the manufacturer’s instructions. The CHO‐Gα16 cell line was established in our previous study and maintained in DMEM/F12 medium containing puromycin (4 μg/ml) (Wu et al., 2018). Cell lines were maintained in vendor recommended growth medium supplemented with 10% FBS (Gibco, Waltham, MA, USA) and 1% penicillin/streptomycin solution (Gibco) at 37°C ins a humidified atmosphere (5% CO2). All cell lines were authenticated using short tandem repeat analysis. All cell lines were confirmed to be mycoplasma‐free by polymerase chain reaction (PCR) analysis. Cell viability was determined using CellTiter 96 ® Aqueous One Solution (Promega, Madison, WI).
(§3) Appendix Figure S1. […]. The cytotoxicity curves
(§4) . Mouse cancer cells: CT26
(§5) . Human colon cancer cells: HCT116 (E),
(§6) HCT8 (F), HT29 (G) and DLD1 (H). Human normal cell line: HUVECs (I). Cell
(§7) viability was measured by MTS. Data are presented as mean ± SEM derived
(§8) from three independent experiments (n=3).
(§9) (1 picture or pasted object on this page, not shown here)

[8] = tested on: MC38; experiment: Cell viability (MTS); type: cell-based, mouse; settings: MC38, 100 µM
Source text: as §2, §3, §4, §5, §6, §7, §8, §9

[9] = tested on: 4T1; experiment: Cell viability (MTS); type: cell-based, mouse; settings: 4T1, 100 µM
Source text: as §2, §3, §4, §5, §6, §7, §8, §9

[10] = tested on: Panc02; experiment: Cell viability (MTS); type: cell-based, mouse; settings: Panc02, 100 µM
Source text: as §2, §3, §4, §5, §6, §7, §8, §9

[11] = molecular target: T5, ADORA2A (Homo sapiens, UniProt P29274); experiment: LANCE Ultra cAMP assay; type: cell-based
T5 construct: Pharmaron (Beijing, China) performed the assay
T5 sequence (P29274 whole entry, species assumed): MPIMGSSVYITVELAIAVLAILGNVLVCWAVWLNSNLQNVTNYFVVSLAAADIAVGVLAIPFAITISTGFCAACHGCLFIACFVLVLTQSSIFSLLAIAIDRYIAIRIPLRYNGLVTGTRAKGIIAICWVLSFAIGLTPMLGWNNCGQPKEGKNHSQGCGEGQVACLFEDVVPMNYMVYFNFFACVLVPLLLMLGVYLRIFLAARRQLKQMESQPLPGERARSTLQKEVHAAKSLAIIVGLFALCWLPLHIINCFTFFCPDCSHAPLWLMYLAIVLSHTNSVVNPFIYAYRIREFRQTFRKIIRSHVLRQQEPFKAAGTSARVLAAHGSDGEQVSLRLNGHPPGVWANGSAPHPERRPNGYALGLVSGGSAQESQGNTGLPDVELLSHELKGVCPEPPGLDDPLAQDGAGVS

[12] = tested on: AOM/DSS-induced colorectal tumors; experiment: AOM/DSS-induced colorectal cancer model; type: in vivo, mouse; settings: AOM/DSS mice, TP-16 75 mg/kg po daily, anti-PD-1 50 μg ip twice weekly, 5 weeks
Description: ; i.p.; Sigma‐Aldrich, St. Louis, MO, USA). After 1 week of rest, mice were provided with 2.5% DSS (MP Biomedicals, Santa Ana, CA, USA) in their drinking water for 5 days, followed by DSS‐free water for two weeks. The DSS treatment cycle was carried out three times in total, and mice were randomized into four groups and subjected to the therapeutic protocol. Mice were sacrificed at 37 days after the indicated treatments.
as §1

[13] = tested on: mouse bone marrow cells; experiment: Macrophage polarization assay (M-CSF/IL-4/PGE2, M2 macrophages); type: cell-based; settings: M-CSF/IL-4/PGE2, 6 days, concentration-dependent
Description: Single‐cell suspensions of mouse BM cells were prepared by filtering femurs and tibias of 6‐week‐old female BALB/c mice through 40‐μm cell strainers (Falcon). These suspensions were treated with red blood cell lysis buffer and replated in conditioned medium. Monocyte differentiation, MDSC induction, and macrophage polarization were analyzed by FACS analysis (BD Biosciences) with FlowJo software.
For macrophage polarization assay (De Henau et al., 2016; Tan et al., 2018), mouse BM cells were cultured in RPMI1640 medium supplemented with recombinant mouse M‐CSF (20 ng/ml, Peprotech) to generate BM‐derived macrophages (BMDM). For FACS analysis of BM‐derived M2‐like macrophage, IL‐4 (20 ng/ml, Peprotech) and PGE2 (10 nM) were added on day 0. TP‐16 was added simultaneously with PGE2 on day 0 or sequentially on day 3 for differentiation over a period of 6 days. For qPCR analysis of macrophages (day 6), BMDMs were polarized with IFNγ (50 ng/ml, Peprotech) or IL‐4 (20 ng/ml, Peprotech) ± PGE2 (10 nM) ± TP‐16 for 24 h at 37°C on day 6. The culture medium was refreshed every 3 days.

[14] = In vitro metabolic stability using liver microsome; type: in vitro ADME; settings: liver microsomes
[15] = molecular target: T6, human EP1 (Homo sapiens, UniProt P34995); experiment: PGE2-induced calcium flux assay in CHO-Gα16 cells; type: cell-based
T6 construct: host or cells: CHO-Gα16
T6 sequence (P34995 whole entry): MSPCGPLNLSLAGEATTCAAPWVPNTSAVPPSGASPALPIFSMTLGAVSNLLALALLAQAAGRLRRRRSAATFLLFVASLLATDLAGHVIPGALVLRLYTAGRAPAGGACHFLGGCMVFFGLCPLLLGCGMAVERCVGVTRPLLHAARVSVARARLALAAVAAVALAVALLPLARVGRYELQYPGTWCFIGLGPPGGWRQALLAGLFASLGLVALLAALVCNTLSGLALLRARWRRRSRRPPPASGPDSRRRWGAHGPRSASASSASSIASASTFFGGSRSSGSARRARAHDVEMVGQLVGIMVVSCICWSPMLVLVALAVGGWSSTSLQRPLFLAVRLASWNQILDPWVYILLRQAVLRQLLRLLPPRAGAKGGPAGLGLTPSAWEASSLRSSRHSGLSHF

[16] = molecular target: T7, ADRB1 (Homo sapiens, UniProt P08588); experiment: GPCR calcium flux assay; type: cell-based
T7 construct: Pharmaron (Beijing, China) performed the assay
T7 sequence (P08588 whole entry, species assumed): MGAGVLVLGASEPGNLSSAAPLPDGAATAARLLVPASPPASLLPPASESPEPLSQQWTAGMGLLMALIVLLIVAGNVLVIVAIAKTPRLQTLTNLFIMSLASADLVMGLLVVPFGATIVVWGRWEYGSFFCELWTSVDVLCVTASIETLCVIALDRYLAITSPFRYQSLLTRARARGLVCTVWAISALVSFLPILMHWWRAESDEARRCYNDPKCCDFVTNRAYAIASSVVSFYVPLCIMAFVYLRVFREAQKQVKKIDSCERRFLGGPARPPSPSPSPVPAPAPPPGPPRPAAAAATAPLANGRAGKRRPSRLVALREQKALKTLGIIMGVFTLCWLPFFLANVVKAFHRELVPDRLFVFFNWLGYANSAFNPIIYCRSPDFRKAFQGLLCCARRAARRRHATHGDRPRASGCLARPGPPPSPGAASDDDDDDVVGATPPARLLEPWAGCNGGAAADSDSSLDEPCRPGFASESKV

T1 sequence (P30556 whole entry): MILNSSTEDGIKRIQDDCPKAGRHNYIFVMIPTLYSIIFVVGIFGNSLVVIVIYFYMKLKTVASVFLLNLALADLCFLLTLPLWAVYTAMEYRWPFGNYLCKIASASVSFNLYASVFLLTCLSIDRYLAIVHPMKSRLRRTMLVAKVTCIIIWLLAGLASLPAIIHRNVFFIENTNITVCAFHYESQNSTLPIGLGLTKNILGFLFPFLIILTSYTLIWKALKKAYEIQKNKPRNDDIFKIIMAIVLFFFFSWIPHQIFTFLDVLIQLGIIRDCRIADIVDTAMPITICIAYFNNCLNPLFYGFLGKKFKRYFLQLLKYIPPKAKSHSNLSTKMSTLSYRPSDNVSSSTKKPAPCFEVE

In the case of `C[C@H](NC(=O)c1c(Cc2ccc(F)cc2)sc2c1CCOC2)c1ccc(C(=O)O)cc1` [TP-16], the IC50 [1] is reported as greater than 10 µM, the “anti-tumor efficacy in BALB/c nude mice” value [2] is reported as “lost” and the IC50 [3] is reported as greater than 10 µM. It also gave an IC50 [4] greater than 10 µM, a hepatocyte CLint ([5]; liver microsomes) of 5.91 µL/min/1e6 cells and a half-life ([5]; liver microsomes, read-out: In vitro T1/2) of 235 min. For the same compound, the CLhep predicted ([5]; liver microsomes, read-out: Predicted hepatic Clint) was 39.3 mL/min/kg, the CLint scaled ([5]; liver microsomes, read-out: Scale-up Clint) was 69.8 mL/min/kg and the “Remaining Percentages at 120 min” value [5] was 70.6%. For the same compound, the IC50 [6] was greater than 10 µM, the “effect on cell viability” value [7] was “did not affect the viability” and the “effect on cell viability” value [8] was “did not affect the viability”. For the same compound, the “effect on cell viability” value [9] was “did not affect the viability”, the “effect on cell viability” value [10] was “did not affect the viability” and the IC50 [11] was greater than 10 µM. For the same compound, the “tumor number (multiplicity) and size” value [12] was “moderately reduced”, the “PGE2-induced polarization of M2 macrophages” value [13] was “significantly suppressed” and the CLhep predicted ([14]; human, read-out: Predicted hepatic Clint) was less than 4.69 mL/min/kg. For the same compound, the hepatocyte CLint ([14]; human liver microsome) was less than 2.39 µL/min/1e6 cells, the half-life ([14]; human liver microsome, read-out: In vitro T1/2) was greater than 581 min and the CLint scaled ([14]; human liver microsome, read-out: Scale-up Clint) was less than 6.07 mL/min/kg. For the same compound, the IC50 [15] was greater than 10 µM and the IC50 [16] was greater than 10 µM.
